Here are results for 15 compounds from PubChem BioAssay (NCI).

“And” between values parts separate entries of the source, which are not always exact repeats. Equal values may be shown once.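 Five compound concentrations were applied to cells in 96-well plates for 48 hours; endpoints were derived by simple linear interpolation of the resulting dose-response curve. The concentration for 50% growth inhibition is given as GI50. TGI marks complete inhibition of growth.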 A value given as a limit tells only on which side of the number the result lay.

Test systems include M14 melanoma; MDA-MB-231 breast; KM12 colon; NCI/ADR-RES ovarian; MDA-MB-435; OVCAR-4 ovarian; HS 578T breast; SNB-19 CNS.
Common to all, as to experiment: NCI-60 cell line screen, 48 h

Take `NCCCNc1nc2ccccc2c2c(=O)c3cc(F)ccc3sc12`: the GI50 in the assay with M14 melanoma is 1.69 µM; in the assay with MDA-MB-231 breast, 1.45 µM; in the assay with KM12 colon, 1.8 µM; in the assay on NCI/ADR-RES ovarian, 1.7 µM; in the assay with MDA-MB-435, 1.75 µM; with OVCAR-4 ovarian, 1.75 µM. The TGI in the assay on M14 melanoma stood at 3.11 µM; in the assay on MDA-MB-231 breast, 2.9 µM; in the assay on KM12 colon it was 3.36 µM; in the assay on NCI/ADR-RES ovarian, 3.36 µM; in the assay with MDA-MB-435, 3.27 µM; in the assay on OVCAR-4 ovarian, 3.4 µM.
On to `COC(=O)c1c[nH]c2cc(OC(C)C)c(OC(C)C)cc2c1=O`, for which the GI50 with HS 578T breast, in the assay with M14 melanoma, with MDA-MB-231 breast, in the assay on KM12 colon, in the assay on NCI/ADR-RES ovarian and in the assay on SNB-19 CNS was more than 100 µM in each case. Further, in the assay on MDA-MB-435, the GI50 is more than 100 µM. In addition, the TGI in the assay with HS 578T breast, with M14 melanoma, in the assay with MDA-MB-231 breast, in the assay with KM12 colon, in the assay with NCI/ADR-RES ovarian and in the assay on SNB-19 CNS was more than 100 µM throughout. For the same compound, the TGI in the assay on MDA-MB-435 was more than 100 µM.
Consider `O=C1/C(=C\c2ccc(F)cc2)CN(C(=O)c2ccccc2F)C/C1=C\c1ccc(F)cc1`, for which the GI50 in the assay with HS 578T breast is 3.66 µM; in the assay with M14 melanoma it was 1.51 µM; with MDA-MB-231 breast, 1.83 µM; in the assay on KM12 colon, 0.371 µM; with NCI/ADR-RES ovarian, 2.8 µM; in the assay on SNB-19 CNS it was 1.58 µM. Besides, the GI50 in the assay with MDA-MB-435 was 0.547 µM; in the assay on OVCAR-4 ovarian, 2.33 µM. Moreover, the TGI came to 20.3 µM in the assay on HS 578T breast; 3.44 µM in the assay on M14 melanoma; 3.95 µM in the assay on MDA-MB-231 breast; 1.32 µM with KM12 colon; 16.4 µM with NCI/ADR-RES ovarian; 3.55 µM in the assay on SNB-19 CNS. Also, the TGI came to 2.06 µM with MDA-MB-435 and 6.53 µM in the assay on OVCAR-4 ovarian.
With `Cc1sc(C(=O)c2cncnc2N[C@@H]2C[C@H](COS(N)(=O)=O)[C@@H](O)C2)cc1[C@@H]1NCCc2ccc(Cl)cc21`, the GI50 in the assay with HS 578T breast is 6.08 µM; in the assay with M14 melanoma, 0.572 µM; in the assay with MDA-MB-231 breast, 9.29 µM; in the assay on KM12 colon it was 13.1 µM; in the assay with NCI/ADR-RES ovarian it was 51.8 µM; with SNB-19 CNS it was 14.8 µM. Also, the GI50 with MDA-MB-435 was 0.156 µM; in the assay with OVCAR-4 ovarian, 4.38 µM. For the same compound, the TGI with HS 578T breast was 44 µM; in the assay on M14 melanoma it was 21.6 µM; with MDA-MB-231 breast, 24.8 µM; in the assay on KM12 colon it was 28.3 µM; with NCI/ADR-RES ovarian, more than 100 µM; in the assay with SNB-19 CNS, 28.8 µM. Further, the TGI was determined as 14.8 µM in the assay on MDA-MB-435 and 31.1 µM in the assay on OVCAR-4 ovarian.
Take `O=C(Nc1ccncc1)C(=O)c1cn(S(=O)(=O)c2cccc(Cl)c2)c2ccccc12`: the GI50 was 77.1 µM in the assay with HS 578T breast; 4.09 µM with M14 melanoma; 10.6 µM with MDA-MB-231 breast; 3.96 µM in the assay with KM12 colon; 2.86 µM in the assay on NCI/ADR-RES ovarian; 27.5 µM with SNB-19 CNS. Also, in the assay on OVCAR-4 ovarian, the GI50 is 7.51 µM. Moreover, the TGI in the assay on HS 578T breast was more than 100 µM; in the assay on M14 melanoma, 32.6 µM; with MDA-MB-231 breast, 43.9 µM; with KM12 colon, more than 100 µM; with NCI/ADR-RES ovarian, more than 100 µM; with SNB-19 CNS, more than 100 µM. The same compound had a TGI in the assay on OVCAR-4 ovarian of more than 100 µM.
Consider `CC12OC(CC(O)C1O)n1c3ccccc3c3c4c(c5c6ccccc6n2c5c31)C(=O)N(CCN1CCOCC1)C4=O` (stereo not drawn), for which the GI50 with HS 578T breast is 1.92 µM; in the assay with M14 melanoma, 0.912 µM; with MDA-MB-231 breast, 3.04 µM; in the assay on KM12 colon it was 1.25 µM; with NCI/ADR-RES ovarian, 1.82 µM; with SNB-19 CNS, 1.46 µM. Also, the GI50 with MDA-MB-435 was 1.46 µM; in the assay with OVCAR-4 ovarian, 2.2 µM. Further, the TGI in the assay on HS 578T breast was 10.2 µM; in the assay on M14 melanoma, 4.54 µM; in the assay on MDA-MB-231 breast, 11.5 µM; with KM12 colon, 6.5 µM; in the assay with NCI/ADR-RES ovarian, 8.31 µM; in the assay on SNB-19 CNS it was 13.9 µM. Besides, the TGI in the assay on MDA-MB-435 was 7.56 µM; in the assay on OVCAR-4 ovarian, 12.3 µM.
`CCN1CCN(c2nc(C)cc(NCc3cc(Nc4ccnc5cc(Cl)ccc45)ccc3F)n2)CC1`: the GI50 in the assay with HS 578T breast was 1.72 µM; in the assay with M14 melanoma, 1.45 µM; in the assay with MDA-MB-231 breast, 1.44 µM; in the assay with KM12 colon it was 2.95 µM; in the assay with NCI/ADR-RES ovarian, 3.07 µM; in the assay on SNB-19 CNS it was 2.91 µM. In addition, the GI50 with MDA-MB-435 is 1.5 µM; in the assay with OVCAR-4 ovarian, 1.59 µM. The TGI with HS 578T breast stood at 5.29 µM; with M14 melanoma, 3.12 µM; with MDA-MB-231 breast it was 3.56 µM; with KM12 colon it was 10.5 µM; in the assay on NCI/ADR-RES ovarian it was 15.1 µM; in the assay on SNB-19 CNS it was 13.1 µM. Also, the TGI was found to be 2.91 µM in the assay with MDA-MB-435 and 7.7 µM in the assay on OVCAR-4 ovarian.
For the compound `C=C1C(=O)O[C@H]2[C@H]1CC/C(COC(=O)c1cccnc1N)=C\CC[C@@]1(C)O[C@@H]21`, the GI50 was 4.15 µM in the assay on HS 578T breast; 1.12 µM in the assay with M14 melanoma; 2.32 µM with MDA-MB-231 breast; 3.19 µM with KM12 colon; 4.56 µM in the assay on NCI/ADR-RES ovarian; 8.65 µM in the assay on SNB-19 CNS. Moreover, the GI50 with MDA-MB-435 is 2.58 µM; with OVCAR-4 ovarian, 2.08 µM. Moreover, the TGI with HS 578T breast was 65.1 µM; in the assay with M14 melanoma, 3.59 µM; in the assay on MDA-MB-231 breast, 6.9 µM; in the assay with KM12 colon, 11.8 µM; in the assay on NCI/ADR-RES ovarian, 39.9 µM; with SNB-19 CNS, 28.5 µM. Besides, the TGI in the assay with MDA-MB-435 was determined as 12 µM; with OVCAR-4 ovarian it was 19.4 µM.
Regarding `CC1(C)C(N2CCOCC2)CS1(=O)=O` (stereo not drawn), the TGI in the assay on HS 578T breast, with M14 melanoma, with MDA-MB-231 breast, in the assay with KM12 colon, in the assay with NCI/ADR-RES ovarian and with SNB-19 CNS was more than 10 µM throughout. Moreover, the TGI in the assay on MDA-MB-435 and in the assay with OVCAR-4 ovarian was more than 10 µM throughout.
On to `Cc1cc(O)ccc1C1=NN(c2ccc(S(N)(=O)=O)cc2)C(=O)CC1`, for which the GI50 in the assay on HS 578T breast was 6.64 µM and 60.5 µM; in the assay on M14 melanoma, 2.55 µM and 4.48 µM; in the assay with MDA-MB-231 breast, 10.9 µM and 21.8 µM; in the assay on KM12 colon it was 2.89 µM and 6.49 µM; in the assay on NCI/ADR-RES ovarian, 2.36 µM and 3.9 µM; in the assay with SNB-19 CNS, 27.4 µM and 20.3 µM. Also, the GI50 in the assay on MDA-MB-435 was 0.994 µM and 1.73 µM; with OVCAR-4 ovarian it was more than 100 µM. For the same compound, the TGI in the assay on HS 578T breast was 43.9 µM and > 100 µM; with M14 melanoma, 50 µM and 81.4 µM; with MDA-MB-231 breast it was 50 µM and > 100 µM; in the assay on KM12 colon, 50 µM and > 100 µM; with NCI/ADR-RES ovarian it was 50 µM and 30 µM; in the assay on SNB-19 CNS it was 50 µM and > 100 µM. Further, the TGI is 4.35 µM and 5.48 µM in the assay with MDA-MB-435; more than 100 µM in the assay on OVCAR-4 ovarian.
For `COc1ccc(OC)c(Nc2nc3nonc3nc2Nc2cccc(Br)c2)c1`, the GI50 was 0.807 µM in the assay with HS 578T breast; 1.5 µM in the assay with M14 melanoma; 1.06 µM with MDA-MB-231 breast; 1.24 µM in the assay on KM12 colon; 0.541 µM in the assay on NCI/ADR-RES ovarian; 0.692 µM in the assay on SNB-19 CNS. The GI50 is 0.538 µM in the assay with MDA-MB-435 and 0.867 µM in the assay on OVCAR-4 ovarian. Besides, the TGI is 8.14 µM in the assay on HS 578T breast; 44.7 µM with M14 melanoma; 10.7 µM in the assay with MDA-MB-231 breast; more than 100 µM in the assay on KM12 colon; 13.9 µM with NCI/ADR-RES ovarian; 19.1 µM with SNB-19 CNS. Moreover, the TGI in the assay on MDA-MB-435 and with OVCAR-4 ovarian was more than 100 µM throughout.
As to `O=C(/C=C/c1ccccc1)c1cccc2ccccc12`, the GI50 in the assay on HS 578T breast is 5.43 µM; in the assay on M14 melanoma it was 2.39 µM; with MDA-MB-231 breast it was 4.16 µM; in the assay on KM12 colon, 1.89 µM; with NCI/ADR-RES ovarian, 3.27 µM; with SNB-19 CNS, 4.1 µM. Besides, in the assay on MDA-MB-435, the GI50 was 2.64 µM. The TGI was more than 100 µM with HS 578T breast; 5.19 µM with M14 melanoma; 18.3 µM in the assay with MDA-MB-231 breast; 3.77 µM in the assay with KM12 colon; 19.6 µM in the assay with NCI/ADR-RES ovarian; 15.3 µM in the assay with SNB-19 CNS. Further, the TGI with MDA-MB-435 is 14.7 µM.
In the case of `CC(=Nc1ccc(N(C)C)cc1)c1ccccc1`, the TGI with HS 578T breast is 65.1 µM; with M14 melanoma, 29.9 µM; in the assay with MDA-MB-231 breast, 35.4 µM; in the assay with KM12 colon, more than 100 µM; in the assay with NCI/ADR-RES ovarian, 68.4 µM; in the assay with SNB-19 CNS it was more than 100 µM. In the assay with OVCAR-4 ovarian, this compound showed a TGI of 40.8 µM.
Turning to `CC(=O)[CH-]C(=O)c1ccccc1.CC(=O)[CH-]C(=O)c1ccccc1.Cl.[O-]c1ccnc2ccccc12.[O-]c1ccnc2ccccc12.[Ti+4]`, the GI50 in the assay with M14 melanoma, with KM12 colon, with SNB-19 CNS and in the assay on OVCAR-4 ovarian was more than 100 µM each time. Moreover, the TGI in the assay with M14 melanoma, with KM12 colon, in the assay on SNB-19 CNS and with OVCAR-4 ovarian was more than 100 µM each time.
For `O=C(Oc1ccccc1)N(c1ccccc1)c1ccccc1`, the GI50 was 24.7 µM with M14 melanoma; 28 µM in the assay with MDA-MB-231 breast; 28.7 µM in the assay on KM12 colon; 21.8 µM with NCI/ADR-RES ovarian; 40.7 µM in the assay on SNB-19 CNS; 24.4 µM in the assay with MDA-MB-435. Besides, in the assay with OVCAR-4 ovarian, the GI50 was 25.1 µM. The TGI in the assay with M14 melanoma was 65.2 µM; in the assay on MDA-MB-231 breast it was more than 100 µM; in the assay with KM12 colon, more than 100 µM; in the assay on NCI/ADR-RES ovarian, 72.2 µM; with SNB-19 CNS, more than 100 µM; in the assay with MDA-MB-435, 75.9 µM. Also, the TGI in the assay on OVCAR-4 ovarian was more than 100 µM.
